From patent US8952024B2, “Herbicidal pyrimidone derivatives” (E I du Pont de Nemours and Company, priority 2009, dated 2015)

How the values were obtained:
Test in all cases: Test C plant response
Format in all cases: in vivo
Conditions in all cases: Postemergence, scale 0 to 100
[1] = tested on: windgrass (Apera spica-venti)
In short: (§1)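 Formulation: non-phytotoxic solvent + surfactant. Controlled growth environment, 14 d. Visual rating vs controls, 0 = no effect, 100 = complete control; dash = no result.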

[2] = tested on: chickweed (common chickweed, Stellaria media)
In short: as §1

wild oat (Avena fatua) = tested on: wild oat (Avena fatua)
In short: as §1

[3] = tested on: bluegrass (annual bluegrass, Poa annua)
In short: as §1

[4] = tested on: spring wheat (Triticum aestivum)
In short: as §1

[5] = tested on: field poppy (Papaver rhoeas)
In short: as §1

[6] = tested on: winter barley (Hordeum vulgare)
In short: as §1

[7] = tested on: green foxtail (Setaria viridis)
In short: as §1

[8] = tested on: spring barley (Hordeum vulgare)
In short: as §1

[9] = tested on: galium (catchweed bedstraw, Galium aparine)
In short: as §1

[10] = tested on: Italian ryegrass (Lolium multiflorum)
In short: as §1

[11] = tested on: bromegrass (downy bromegrass, Bromus tectorum)
In short: as §1

kochia (Kochia scoparia) = tested on: kochia (Kochia scoparia)
In short: as §1

[12] = tested on: wild radish (Raphanus raphanistrum)
In short: as §1

[13] = tested on: blackgrass (Alopecurus myosuroides)
In short: as §1

[14] = tested on: deadnettle (henbit deadnettle, Lamium amplexicaule)
In short: as §1

[15] = tested on: wild mustard (Sinapis arvensis)
In short: as §1

[16] = tested on: oilseed rape (Brassica napus)
In short: as §1

[17] = tested on: canarygrass (Phalaris minor)
In short: as §1

[18] = tested on: Russian thistle (Salsola iberica)
In short: as §1

[19] = tested on: buckwheat (wild buckwheat, Polygonum convolvulus)
In short: as §1

[20] = tested on: field violet (Viola arvensis)
In short: as §1

[21] = tested on: winter wheat (Triticum aestivum)
In short: as §1

Cc1ccc(-n2c(-c3ccccc3)ncc(C(=O)C3=C(O)CCCC3=O)c2=O)cc1 [Compound 8]
Plant response rating: Windgrass ([1]; 31 g ai/ha): 10 | Plant response rating: Windgrass ([1]; 16 g ai/ha): 0 | Plant response rating: Windgrass ([1]; 62 g ai/ha): 20 | Plant response rating: Windgrass ([1]; 125 g ai/ha): 60 | Plant response rating: Chickweed ([2]; 31 g ai/ha): 95 | Plant response rating: Chickweed ([2]; 16 g ai/ha): 95 | Plant response rating: Chickweed ([2]; 62 g ai/ha): 95 | Plant response rating: Chickweed ([2]; 125 g ai/ha): 98 | Plant response rating: Oat, Wild (wild oat (Avena fatua); 31 g ai/ha): 20 | Plant response rating: Oat, Wild (wild oat (Avena fatua); 16 g ai/ha): 20 | Plant response rating: Oat, Wild (wild oat (Avena fatua); 62 g ai/ha): 30 | Plant response rating: Oat, Wild (wild oat (Avena fatua); 125 g ai/ha): 30 | Plant response rating: Bluegrass ([3]; 31 g ai/ha): 25 | Plant response rating: Bluegrass ([3]; 16 g ai/ha): 5 | Plant response rating: Bluegrass ([3]; 62 g ai/ha): 50 | Plant response rating: Bluegrass ([3]; 125 g ai/ha): 75 | Plant response rating: Wheat, Spring ([4]; 31 g ai/ha): 5 | Plant response rating: Wheat, Spring ([4]; 16 g ai/ha): 5 | Plant response rating: Wheat, Spring ([4]; 62 g ai/ha): 5 | Plant response rating: Wheat, Spring ([4]; 125 g ai/ha): 20 | Plant response rating: Field Poppy ([5]; 31 g ai/ha): 20 | Plant response rating: Field Poppy ([5]; 16 g ai/ha): 0 | Plant response rating: Field Poppy ([5]; 62 g ai/ha): 40 | Plant response rating: Field Poppy ([5]; 125 g ai/ha): 60 | Plant response rating: Barley, Winter ([6]; 31 g ai/ha): 20 | Plant response rating: Barley, Winter ([6]; 16 g ai/ha): 0 | Plant response rating: Barley, Winter ([6]; 62 g ai/ha): 20 | Plant response rating: Barley, Winter ([6]; 125 g ai/ha): 40 | Plant response rating: Foxtail, Green ([7]; 31 g ai/ha): 95 | Plant response rating: Foxtail, Green ([7]; 16 g ai/ha): 95 | Plant response rating: Foxtail, Green ([7]; 62 g ai/ha): 95 | Plant response rating: Foxtail, Green ([7]; 125 g ai/ha): 98 | Plant response rating: Barley, Spring ([8]; 31 g ai/ha): 10 | Plant response rating: Barley, Spring ([8]; 16 g ai/ha): 0 | Plant response rating: Barley, Spring ([8]; 62 g ai/ha): 20 | Plant response rating: Barley, Spring ([8]; 125 g ai/ha): 30 | Plant response rating: Galium ([9]; 31 g ai/ha): 75 | Plant response rating: Galium ([9]; 16 g ai/ha): 50 | Plant response rating: Galium ([9]; 62 g ai/ha): 90 | Plant response rating: Galium ([9]; 125 g ai/ha): 90 | Plant response rating: Ryegrass, Italian ([10]; 31 g ai/ha): 0 | Plant response rating: Ryegrass, Italian ([10]; 16 g ai/ha): 0 | Plant response rating: Ryegrass, Italian ([10]; 62 g ai/ha): 20 | Plant response rating: Ryegrass, Italian ([10]; 125 g ai/ha): 35 | Plant response rating: Bromegrass, Downy ([11]; 31 g ai/ha): 25 | Plant response rating: Bromegrass, Downy ([11]; 16 g ai/ha): 10 | Plant response rating: Bromegrass, Downy ([11]; 62 g ai/ha): 35 | Plant response rating: Bromegrass, Downy ([11]; 125 g ai/ha): 40 | Plant response rating: Kochia (kochia (Kochia scoparia); 31 g ai/ha): 70 | Plant response rating: Kochia (kochia (Kochia scoparia); 16 g ai/ha): 65 | Plant response rating: Kochia (kochia (Kochia scoparia); 62 g ai/ha): 85 | Plant response rating: Kochia (kochia (Kochia scoparia); 125 g ai/ha): 90 | Plant response rating: Radish, Wild ([12]; 31 g ai/ha): 95 | Plant response rating: Radish, Wild ([12]; 16 g ai/ha): 85 | Plant response rating: Radish, Wild ([12]; 62 g ai/ha): 98 | Plant response rating: Radish, Wild ([12]; 125 g ai/ha): 100 | Plant response rating: Blackgrass ([13]; 31 g ai/ha): 30 | Plant response rating: Blackgrass ([13]; 16 g ai/ha): 20 | Plant response rating: Blackgrass ([13]; 62 g ai/ha): 35 | Plant response rating: Blackgrass ([13]; 125 g ai/ha): 35 | Plant response rating: Deadnettle ([14]; 31 g ai/ha): 95 | Plant response rating: Deadnettle ([14]; 16 g ai/ha): 85 | Plant response rating: Deadnettle ([14]; 62 g ai/ha): 98 | Plant response rating: Deadnettle ([14]; 125 g ai/ha): 100 | Plant response rating: Mustard, Wild ([15]; 31 g ai/ha): 95 | Plant response rating: Mustard, Wild ([15]; 62 g ai/ha): 98 | Plant response rating: Mustard, Wild ([15]; 125 g ai/ha): 98 | Plant response rating: Oilseed Rape ([16]; 31 g ai/ha): 90 | Plant response rating: Oilseed Rape ([16]; 16 g ai/ha): 80 | Plant response rating: Oilseed Rape ([16]; 62 g ai/ha): 98 | Plant response rating: Oilseed Rape ([16]; 125 g ai/ha): 100 | Plant response rating: Canarygrass ([17]; 31 g ai/ha): 5 | Plant response rating: Canarygrass ([17]; 16 g ai/ha): 0 | Plant response rating: Canarygrass ([17]; 62 g ai/ha): 10 | Plant response rating: Canarygrass ([17]; 125 g ai/ha): 10 | Plant response rating: Russian Thistle ([18]; 31 g ai/ha): 90 | Plant response rating: Russian Thistle ([18]; 16 g ai/ha): 90 | Plant response rating: Russian Thistle ([18]; 62 g ai/ha): 95 | Plant response rating: Russian Thistle ([18]; 125 g ai/ha): 95 | Plant response rating: Buckwheat, Wild ([19]; 31 g ai/ha): 65 | Plant response rating: Buckwheat, Wild ([19]; 16 g ai/ha): 65 | Plant response rating: Buckwheat, Wild ([19]; 62 g ai/ha): 65 | Plant response rating: Buckwheat, Wild ([19]; 125 g ai/ha): 65 | Plant response rating: Field Violet ([20]; 31 g ai/ha): 65 | Plant response rating: Field Violet ([20]; 16 g ai/ha): 10 | Plant response rating: Field Violet ([20]; 62 g ai/ha): 65 | Plant response rating: Field Violet ([20]; 125 g ai/ha): 65 | Plant response rating: Wheat, Winter ([21]; 31 g ai/ha): 10 | Plant response rating: Wheat, Winter ([21]; 16 g ai/ha): 10 | Plant response rating: Wheat, Winter ([21]; 62 g ai/ha): 25 | Plant response rating: Wheat, Winter ([21]; 125 g ai/ha): 30
